Measured values taken from patent US9353075B2, “Disubstituted beta-lactones as inhibitors of N-acylethanolamine acid amidase (NAAA)” (The Regents of the University of California, priority 2011, dated 2016).

Columns and labels:
r-NAAA = r-NAAA (Rattus norvegicus (Rat), UniProt Q5KTC7); assay: r-NAAA inhibition, rat lung lysosomal NAAA preparation, UPLC/MS; type: biochemical
How it was run: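 Enzyme was a lysosomal fraction from male Sprague-Dawley rat lung, preincubated with compound 30 min at 37 °C in NaH2PO4/citrate pH 4.5, 1% Triton-X, 3 mM DTT. Heptadecenoylethanolamide (50 μM) was hydrolysed 30 min at 37 °C. Heptadecenoic acid was quantified by UPLC/MS against vehicle, and IC50 fitted by non-linear regression.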

[1] = Chemical stability in PBS buffer pH 7.4; type: physicochemical; conditions: phosphate-buffered saline, 0.01M PBS pH 7.4, 37° C., read-out: Stability in PBS buffer, pH 7.4 t1/2
Method: Chemical stability of select compounds was evaluated under physiological pH conditions (0.01M Phosphate-Buffered Saline, pH 7.4) for up to 24 h. Stock solutions of each compound (10 mM) were prepared freshly in DMSO. Each compound was incubated at a final concentration of 10 μM (1% DMSO) in pre-heated buffer (0.01M Phosphate-Buffered Saline (PBS), pH 7.4 at 37° C.). The sample solutions were divided into aliquots in glass vials (pre-heated at 37° C.) for each time point. The samples were maintained at 37° C. in the UPLC/MS Autosampler during the study (no shaking). A reference solution of each compound (final concentration: 10 μM at 1% DMSO) in pre-heated CH3CN (37° C.) was prepared from the stock solutions (10 mM in DMSO). The reference solutions were maintained at 37° C. in the UPLC/MS Autosampler during the study (no shaking). An internal standard (100 nM) was added to the sample and reference solutions. For each time point, the samples were analyzed directly by LC/MS without any further sample preparation. The samples were analyzed (triplicate injection) by monitoring the MS trace by Multiple Reaction Monitoring (MRM). The compound concentration (expressed as %) was calculated by dividing the peak area at each time point by the peak area at t=0 min. The reference solution was analyzed at the beginning (t=0 min.), and at the end of the study (t=24 h). The apparent half-lives (t1/2) of the disappearance of compound were calculated by a one-phase decay equation using a non-linear regression of compound concentration versus time.
The analyses were performed on a Waters ACQUITY UPLC/MS TQD system consisting of a TQD (Triple Quadropole Detector) Mass Spectrometer equipped with an Electrospray Ionization interface and a Photodiode Array Detector. The analyses were run on an ACQUITY UPLC BEH C18 1.7 μm 2.1×50 mm column with a VanGuard BEH C18 1.7 μm pre-column at 40° C. The mobile phase was 0.1% HCOOH in H2O (A) and 0.1% HCOOH in CH3CN (B) using a linear gradient: 0-0.2 min.: 5% B, 0.2-2.2 min.: 5-95% B, 2.2-2.3 min.: 95-5% B, 2.3-3 min.: 5% B with flow rate at 0.5 mL/min. […]

Acid Ceramidase (AC) = Acid Ceramidase (AC) (Rattus norvegicus (Rat), UniProt Q6P7S1); assay: Acid ceramidase inhibition, recombinant rat AC, LC-MS; type: biochemical; conditions: read-out: r-AC % inhib. @ 10 μM
Acid Ceramidase (AC), sequence (Q6P7S1 21-394): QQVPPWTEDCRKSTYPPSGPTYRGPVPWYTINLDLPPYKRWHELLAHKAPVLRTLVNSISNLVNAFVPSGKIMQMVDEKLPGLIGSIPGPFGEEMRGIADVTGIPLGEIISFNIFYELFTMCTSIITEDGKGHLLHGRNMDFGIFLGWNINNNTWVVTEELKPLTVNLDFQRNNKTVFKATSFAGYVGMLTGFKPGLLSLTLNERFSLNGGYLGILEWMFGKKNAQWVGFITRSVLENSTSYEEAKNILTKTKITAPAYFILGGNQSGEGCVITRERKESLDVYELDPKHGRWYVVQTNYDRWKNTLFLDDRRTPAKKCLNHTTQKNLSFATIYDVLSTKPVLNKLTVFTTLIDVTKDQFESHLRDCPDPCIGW
Method: The PCR (High Fidelity PCR Master, Roche) product was subcloned into a pEF6-[…] vector (Invitrogen) to construct a mammalian expression vector encoding […]-tagged rat AC. HEK293 cells were transfected with pEF6-rAC-[…] using Super-Fect reagent (Qiagen) and screened with G418 (0.3 mg/mL). Cells were suspended in 20 mM Tris HCl (pH 7.5) containing 0.32M sucrose, sonicated and centrifuged at 800×g for 15 minutes at 4° C. The supernatants were centrifuged again at 12,000×g for 30 minutes at 4° C. The pellets were suspended in phosphate-buffered saline (PBS) and subjected to 2 freeze-thaw cycles at -80° C. The suspensions were centrifuged at 105,000×g for 1 hour at 4° C. The supernatants containing recombinant AC were kept at -80° C. until use. Protein concentration was measured using the bicinchoninic acid (BCA) assay (Pierce). […] Reactions were stopped by addition of a mixture of chloroform/methanol (2:1, vol/vol) containing 1 nmol of heptadecanoic acid (HDA; NuChek Prep). […] HDA was eluted on an XDB Eclipse C18 column isocratically at 2.2 mL/min for 1 minute with a solvent mixture of 95% methanol and 5% water, both containing 0.25% acetic acid and 5 mM ammonium acetate. The column temperature was 50° C. Electrospray ionization (ESI) was in the negative mode, capillary voltage as 4 kV, and fragmentor voltage was 100 V. N2 was used as drying gas at a flow rate of 13 L/min and a temperature of 350° C. Nebulizer pressure was set at 60 psi. We monitored [M-H]- in the selected-ion monitoring (SIM) mode using HDA as internal standard. Calibration curves were generated using commercial lauric acid (Nu-Chek Prep; m/z=199).

r-NAAA, sequence (Q5KTC7 34-362): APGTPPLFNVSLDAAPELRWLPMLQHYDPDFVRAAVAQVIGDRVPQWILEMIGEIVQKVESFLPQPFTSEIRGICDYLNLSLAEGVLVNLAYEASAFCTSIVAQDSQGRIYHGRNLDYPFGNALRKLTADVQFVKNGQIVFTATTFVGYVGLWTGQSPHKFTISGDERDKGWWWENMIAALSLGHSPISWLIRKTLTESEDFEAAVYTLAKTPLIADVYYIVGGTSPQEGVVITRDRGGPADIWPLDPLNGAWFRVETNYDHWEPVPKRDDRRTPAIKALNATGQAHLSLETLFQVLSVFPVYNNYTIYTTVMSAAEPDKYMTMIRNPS

C[C@@H]1OC(=O)[C@@H]1NC(=O)CCCCCCc1ccccc1 [corresponding amide analog, reference compound]
IC50 (r-NAAA): 540 nM
half-life at 10 μM [1]: 1.05 h
inhibition at 10 µM (Acid Ceramidase (AC)): < 10%
